Experimental data: US20120014917A1, “METHODS OF TREATING HIV PATIENTS WITH ANTI-FIBROTICS” (University of Minnesota, priority 2009, published 2012)
Entries after “also recorded” stand apart in the source; their conditions may differ.

How the values were obtained:
SIV MAC239 = test: Pirfenidone in SIV-infected non-human primate model (FIG. 1 protocol, Example 2); type: in vivo
From the text: Venous blood will be used to measure CD4^+ cell count by flow cytometry. Tissue biopsies (LN and ileal GALT samples) are divided; one portion will be processed by immunohistochemical staining for quantitative image analysis to determine the absolute size of the total CD4^+ cell population, and the remaining portion will be processed by flow cytometry to proportionately quantify CD4^+ cells (total, naïve, central memory [CM], and effector memory [EM] T cells). These methods have been published elsewhere [Schacker et al., 2006, Clinical and Vaccine Immunology 13:556-60; Schacker et al., 2005, AIDS 19:2169-71; Schacker et al., 2002, J Clin Invest 110:1133-9; Schacker J Infect Dis 186:1092-7]. For flow cytometry, a portion of LN tissue and GALT will be placed on ice and CD4^+ cells are isolated within 24 hours by gently separating the cells from surrounding tissue by using a mesh screen. One million cells are washed once in FACS wash (PBS supplemented with 0.1% sodium azide and 2% bovine serum albumin; Sigma). After aspiration of the supernatant, cells will be stained with peridin clorophylla protein-conjugated CD4, allophycocyanin conjugated CD8, phycoerythrin conjugated CD27, and fluorescein isothiocyanate-conjugated CD45RO (all BD Pharmingen), and incubated for 30 min at 4° C., followed by another wash. Cells will be fixed with 1% paraformaldahyde (Electron Microscopy Sciences) and analyzed on a FACS Calibur flow cytometer (BD Pharmingen). Lymphocytes will be gated on the basis of characteristic forward and side scatter properties, followed by separation into CD4^+ T cells and CD8^+ T cells on the basis of expression of CD4 and CD8. Naive T cells are classified by expression of CD27 without expression of CD45RO, as described elsewhere [Brenchley et al., 2003, Blood 101:2711-20]. CM T cells will be classified by coexpression of CD27 and CD45RO, and EM T cells are classified by lack of CD27 expression.
To quantify the total CD4^+ T cell population in each compartment, 4-μm sections will be prepared from the fixed tissues and stained with antibody for CD4 by using either clone 1F6 (Ventana Medical Systems) or clone 4B12 (Neomarkers; Lab Vision). Images will be captured to quantify the percentage of tissue area occupied by CD4 by using PHOTOSHOP CS2, version 9.0 imaging software (ADOBE SYSTEMS, Inc.) with plug-ins from REINDEER GRAPHICS. Inc.
To quantify collagen in the TZ, methods similar to those previously published can be used [Schacker et al., 2002, J. Clin. Investig. 110:1133-1139]. Sections (4 μm) are stained using a modified trichrome stain to identify collagen fibers, and approximately 18 images from the TZ are captured and transported into PHOTOSHOP CS imaging software (ADOBE SYSTEMS, Inc.). Image analysis tools from REINDEER GRAPHICS, Inc. (Asheville, N.C.) may provide better sensitivity for isolating collagen fibers to quantify the percent area occupied by collagen.
In this study, six animals were divided into two groups of three animals each. One group received pirfenidone for 2 weeks and then was infected with SIV MAC239. […] Pirfenidone was continued for 12 weeks following infection and then discontinued for 12 weeks (i.e., week 24) and then restarted. Thus, the pirfenidone-treated group would receive pirfenidone from week −2 to week 12 (14 weeks) and from week 24 to week 36 (12 weeks) for a […]. […] The dose of pirfenidone used was 200 mg/kg orally, twice daily (BID) for a total daily dose of 400 mg/kg/day. This corresponds to a human dose of approximately 6.5 mg/kg BID.
A diagram of the protocol can be seen in FIG. 1. Lymph node and rectal biopsy samples were collected at day 0 and again at weeks 4, 12, 24, and 36 after infection. […]

SIV infection = test: 24-week study of pirfenidone plus ARV versus ARV only in SIV infection (FIG. 6 protocol, Example 4); type: in vivo
Experimental: FIG. 6 depicts a study protocol wherein pirfenidone is administered from Week −2 (relative to SIV infection) through the end of the study and co-administration of antiretroviral therapy is initiated at Week 8 and continued through the end of the study.
This example describes a 24-week study according to the protocol depicted in FIG. 6. In short, there were two groups in the study. The first group (group C as depicted in FIG. 6) received only ARV beginning at Week 8 (relative to SIV infection) of the study and continuing through week 24. The second group (group D as depicted in FIG. 6) received pirfenidone beginning at week −2 of the study and ARV beginning at Week 8. Both pirfenidone and ARV were then co-administered through Week 24 of the study. Tissues were biopsied at Week −2. Additional biopsies were conducted at Weeks 12, 16 and 24 (after sacrifice of the animal).

[1] = test system: TNF-α, TGF-β1, bFGF, PDGF, and EGF; settings: reported in Zhang et al. 1998; Cain et al. 1998; cited from earlier work
[2] = test system: collagen expression; matrix metalloproteinases (MMPs) and TIMPs; settings: reported; cited from earlier work

## Cc1ccc(=O)n(-c2ccccc2)c1 [pirfenidone]
SIV MAC239; 200 mg/kg orally BID (400 mg/kg/day)
  tolerability, adverse effects or toxicity: well-tolerated without adverse effects or toxicity
SIV MAC239; pirfenidone 200 mg/kg BID orally vs animals not given pirfenidone, FIG. 3A
  peripheral blood CD4 T cell count: no significant change; also recorded: no obvious difference
SIV MAC239; pirfenidone 200 mg/kg BID orally vs animals not given pirfenidone, FIG. 3B
  percent CD4 (CD4%) in peripheral blood: no significant change; also recorded: no obvious difference
SIV MAC239; pirfenidone 200 mg/kg BID orally vs animals not given pirfenidone, FIG. 3C
  plasma SIV RNA load (viral load): no significant change; also recorded: no obvious difference
SIV MAC239; pirfenidone 200 mg/kg BID vs animals not given pirfenidone, FIGS. 4, 5A, 11A
  fibrosis (percent area of T cell zone occupied by collagen) in lymph nodes: decreased; also recorded: significant reduction; also recorded: less fibrosis; also recorded: significant difference
SIV MAC239; pirfenidone 200 mg/kg BID vs animals not given pirfenidone, FIGS. 4, 5B, 11C
  size of the CD4+ T cell population (area staining positive for CD4) in lymph node T cell zone: increased; also recorded: more of the TZ stains positive for CD4^+ T cells; also recorded: higher CD4 numbers; also recorded: significant difference
SIV MAC239; pirfenidone only arm vs no treatment
  proportion of the TZ occupied by collagen (composite, FIG. 12A): lower
SIV MAC239; pirfenidone vs control animals, FIG. 4D
  CD4 population in Peyer's Patches: higher
SIV infection; ARV + pirfenidone arm vs ARV only
  proportion of the TZ occupied by collagen (composite, FIG. 12A): lower
SIV infection; animals treated with pirfenidone vs ARV only, FIG. 11D
  increase in the TZ area staining positive for CD4+ T cells upon initiation of ARV: greater increase
SIV infection; co-administration of pirfenidone and ARV relative to ARV alone, FIG. 12B
  rate of change in CD4+ area in TZ: improves
SIV infection; group D (pirfenidone + ARV) relative to group C (ARV only), week 16 through week 24, FIG. 9
  absolute number of naïve CD4 T cells of the TZ: increase
SIV infection; group D (pirfenidone + ARV) relative to group C (ARV only), week 16 through week 24, FIGS. 8, 11D
  number of CD4 T cells in the TZ (TZ area staining positive for CD4+ T cells): increased; also recorded: more of the TZ stains positive for CD4^+ T cells
SIV infection; group D (pirfenidone + ARV) relative to group C (ARV only), week 24, FIG. 10
  percentage of CD4 T cells in GALT: increased
SIV infection; group D (pirfenidone from week -2 + ARV from week 8) relative to group C (ARV only), FIGS. 7, 11B
  percentage area of the T cell zone with collagen: significantly lower; also recorded: significant reduction
[1]
  excessive biosynthesis or release of various cytokines such as TNF-α, TGF-β1, bFGF, PDGF, and EGF: inhibit
[2]
  balance of matrix metalloproteinases (MMPs) and their endogenous inhibitors (TIMPs): alter
  collagen expression: decrease
